The source of these data is article PMC8842310 (Journal of Medicinal Chemistry, 2022).

For the data set, the system named is CDI iCell cardiomyocytes. As to conditions: geometric mean of the MEC values for beat period, Na+ slope, Na+ amplitude, field duration.

For `CCNC(=N)NC(=O)Nc1c(CC)cc(NS(=O)(=O)c2ccccc2)cc1CC` [5n, N-(3,5-Diethyl-4-(3-(N-ethylcarbamimidoyl)ureido)phenyl)benzenesulfonamide], the “MEC Gmean cardiomyocytes” value stood at 8.9 µM.
